16 molecules from patent US8575357B2, “Substituted (thiazolyl-carbonyl)imidazolidinones and use thereof” (AiCuris GmbH & Co. KG, priority 2009, dated 2013) can be followed below.

Common to all, as to type: cell-based
The subject of experiment [1] is HIV-1LAI. The experiment is described as follows: H9 assay with wild-type HIV-1 (HIV-1LAI supernatant infection, AlamarBlue). As to conditions: Human immunodeficiency virus 1, 120 h, H9 cells, 10% FCS, 5 days. How it is done:
For the mixture for a 96-well MTP, 3 million PBLs are pelleted, suspended in 1 ml of RPMI 1640 medium/10% FCS and incubated together with a suitable amount of HIV-1LAI (NIH AIDS Research & Reference Reagent Program, Germantown, USA) at 37° C. for 2 hours (pellet infection). Unadsorbed viruses are subsequently washed out with PBS, and the infected cells are pelleted again and suspended in 18 ml of RPMI 1640 medium/10% FCS/interleukin-2 (40 U/ml). 180 μl thereof are pipetted into each well of a white 96-well MTP with 20 μl of test substance in suitable dilution. Alternatively, after preparation of the substance dilutions in the MTP, the HIV is pipetted in together with the cells and is not washed out again (supernatant infection). In order to avoid edge effects, the wells at the edge of the MTP are not used for substance dilutions. The second vertical row of the MTP contains only infected cells (virus control) and the eleventh vertical row only uninfected cells (cell control), in each case in RPMI 1640 medium/10% FCS/interleukin-2 (40 U/ml). The other wells of the MTP contain the compounds of the invention in various concentrations starting from the third vertical row, from which the test substances are diluted in 3-fold steps up to the tenth vertical row 3^7-fold. The test substances are dissolved in DMSO, whereby the final DMSO concentration in the test mixture is 1%. The test mixtures are incubated at 37° C./5% CO2. After 5 and 7 days, 50 μl of cell-free supernatant are removed from each well to determine the amount of p24 present by means of a p24 ELISA (HIV-1 p24^CA Antigen Capture Assay Kit, NCI-Frederick Cancer Research and Development Center, Frederick, USA). From the resulting values of the photometric evaluation (450/620 nm) the EC50 values of the test substances are determined as the concentration at which the amount of p24 is 50% of the untreated infected cells.
Alternatively, H9 cells (ATCC, Wesel, Germany) are employed instead of PBLs for testing the test substances. H9 cells are incubated in RPMI 1640 medium with 2% or 10% FCS as a HIV-1LAI supernatant infection at 37° C./5% CO2, (20 μl of substance dilution and 80 μl of cells/virus per well) in accordance with the pattern described above for 5 days. Subsequently, 10 μl of AlamarBlue (Invitrogen, Karlsruhe, Germany) are added to each well, and the MTPs are incubated at 37° C. for 3 hours before the fluorimetric evaluation takes place (544/590 nm). The resulting values are about 40 000 for the untreated uninfected cells and about 7000 for the untreated infected cells. In the low concentration range, the EC50 values of the test substances are determined as the concentration at which the fluorescence is 50% of the untreated uninfected cells (in each case subtracting the values of the untreated infected cells). In addition, in the high concentration range, the CC50 values of the test substances are determined as the concentration at which the fluorescence is 50% of the untreated uninfected cells (in each case subtracting the values of the untreated infected cells).

In experiment [2] the test system is HIV-1NL4-3 reporter virus, wild-type. The experiment is described as follows: Light assay with wild-type HI reporter virus in MT4 7F2 cells. As to conditions: Human immunodeficiency virus 1, 120 h, read-out: EC50 (nM) MT4 7F2 cells HIV-1NL4-M3 wt 2% FCS. How it is done: (§1) For the mixture for a 96-well MTP, 3 million MT4 7F2 cells are pelleted, suspended in 1 ml of RPMI 1640 medium without phenol red (Invitrogen, Karlsruhe, Germany)/10% FCS/10% AIM-V (Invitrogen, Karlsruhe, Germany) and incubated together with a suitable amount of the corresponding HIV-1NL4-3 reporter virus at 37° C. for 2 hours (pellet infection). Unadsorbed viruses are subsequently washed out with PBS, and the infected cells are pelleted again and suspended in 8 ml of RPMI 1640 medium without phenol red/2% or 10% FCS/10% AIM-V. 80 μl thereof are pipetted into each well of a white 96-well MTP with 20 μl of test substance in suitable dilution. To avoid edge effects, the wells on the edge of the MTP are not used for substance dilutions. The second vertical row of the MTP contains only infected cells (virus control) and the eleventh vertical row only uninfected cells (cell control), in each case in RPMI 1640 medium without phenol red/2% or 10% FCS/10% AIM-V. The other wells of the MTP contain the compounds of the invention in various concentrations starting from the third vertical row, from which the test substances are diluted in 3-fold steps up to the tenth vertical row 3^7-fold. The test substances are dissolved in DMSO, whereby the final DMSO concentration in the test mixture is 1%. The test mixtures are incubated at 37° C./5% CO2 for five days and, after the addition of 15 μl of Lu164 substrate (5 mg/ml coelenterazine dissolved in 30 μM glutathione/DMSO, 100 mM NaCl, 1M MES, 100 mM glutathione), evaluated by luminometry. The resulting values are in the region of 1 000 000 RLUs (relative light units) for the virus control and 300 to 400 RLUs for the cell control. The EC50 values of the test substances are determined as the concentration at which the virus replication measured in RLUs is 50% of the untreated infected cells.

The test system of experiment [3] is HIV-1NL4-3 reporter virus, reverse transcriptase mutations K103N-Y181C. The experiment is described as follows: Light assay with inhibitor-resistant HI reporter virus in MT4 7F2 cells. The note with it: Human immunodeficiency virus 1, 120 h, read-out: EC50 (nM) MT4 7F2 cells HIV-1NL4-M3 K103N-Y181C 2% FCS. As to the method: as §1

`O=C1CN(C(=O)c2nc(-c3cccc(Cl)c3)c(-c3ccc(F)c(Cl)c3)s2)CN1` [Example 4, 1-{[5-(3-Chloro-4-fluorophenyl)-4-(3-chlorophenyl)-1,3-thiazole-2-yl]carbonyl}imidazolidin-4-one]: the EC50 (commonly the concentration that produces a half-maximal response) stood at 80 nM in experiment [1], 10 nM in experiment [2] and 143 nM in experiment [3].

For the molecule `N#Cc1cc(-c2sc(C(=O)N3CNC(=O)C3)nc2-c2cccc(Cl)c2)ccc1F` [Example 5, 5-{4-(3-Chlorophenyl)-2-[(4-oxoimidazolidin-1-yl)carbonyl]-1,3-thiazole-5-yl}-2-fluorobenzenecarbonitrile], the half-maximal effective concentration (EC50) stood at 80 nM in experiment [1], 38 nM in experiment [2] and 228 nM in experiment [3].

As for `O=C1CN(C(=O)c2nc(-c3cc(F)cc(Cl)c3)c(-c3cccc(Cl)c3)s2)CN1` [Example 6, 1-{[4-(3-Chloro-5-fluorophenyl)-5-(3-chlorophenyl)-1,3-thiazole-2-yl]carbonyl}imidazolidin-4-one], the EC50 in experiment [1] amounted to 95 nM; in experiment [2], 58 nM; in experiment [3] it was 282 nM.

Consider `N#Cc1cccc(-c2sc(C(=O)N3CNC(=O)C3)nc2-c2cccc(Cl)c2)c1` [Example 7, 3-{4-(3-Chlorophenyl)-2-[(4-oxoimidazolidin-1-yl)carbonyl]-1,3-thiazole-5-yl}benzenecarbonitrile], for which the EC50 in experiment [1] was 20 nM; in experiment [2], 36 nM; in experiment [3], 303 nM.

Regarding `O=C1CN(C(=O)c2nc(-c3cccc(Cl)c3)c(-c3cccc(C(F)(F)F)c3)s2)CN1` [Example 8, 1-({4-(3-Chlorophenyl)-5-[3-(trifluoromethyl)phenyl]-1,3-thiazole-2-yl}carbonyl)imidazolidin-4-one], the EC50 in experiment [2] is 46 nM; in experiment [3] it was 142 nM.

On to `N#Cc1cc(-c2sc(C(=O)N3CNC(=O)C3)nc2-c2ccc(F)c(Cl)c2)ccc1F` [Example 9, 5-{4-(3-Chloro-4-fluorophenyl)-2-[(4-oxoimidazolidin-1-yl)carbonyl]-1,3-thiazole-5-yl}-2-fluorobenzenecarbonitrile], for which the EC50 in experiment [1] came out at 40 nM; in experiment [2], 35 nM; in experiment [3], 118 nM.

Turning to `N#Cc1cccc(-c2sc(C(=O)N3CNC(=O)C3)nc2-c2ccc(F)c(Cl)c2)c1` [Example 10], the concentration for a half-maximal effect (EC50) in experiment [1] came to 5 nM; in experiment [2], 4 nM; in experiment [3], 70 nM.

On to `N#Cc1cc(F)cc(-c2nc(C(=O)N3CNC(=O)C3)sc2-c2cc(F)cc(Cl)c2)c1` [Example 12, 3-{5-(3-Chloro-5-fluorophenyl)-2-[(4-oxoimidazolidin-1-yl)carbonyl]-1,3-thiazole-4-yl}fluorobenzenecarbonitrile], for which the concentration giving a half-maximal response (EC50) in experiment [1] is 80 nM; in experiment [2], 29 nM; in experiment [3] it was 119 nM.

On to `N#Cc1cc(-c2nc(C(=O)N3CNC(=O)C3)sc2-c2cc(F)cc(Cl)c2)ccc1F` [Example 13, 5-{5-(3-Chloro-5-fluorophenyl)-2-[(4-oxoimidazolidin-1-yl)carbonyl]-1,3-thiazole-4-yl}-2-fluorobenzenecarbonitrile], for which the EC50 in experiment [1] is 2 nM; in experiment [2], 0.6 nM; in experiment [3], 43 nM.

Regarding `N#Cc1cc(-c2nc(C(=O)N3CNC(=O)C3)sc2-c2cccc(Cl)c2)ccc1F` [Example 14, 5-{5-(3-Chlorophenyl)-2-[(4-oxoimidazolidin-1-yl)carbonyl]-1,3-thiazole-4-yl}-2-fluorobenzenecarbonitrile], the 50% effective concentration (EC50) in experiment [1] worked out at 4 nM; in experiment [2], 1 nM; in experiment [3] it was 49 nM.

Consider `N#Cc1cc(F)cc(-c2sc(C(=O)N3CNC(=O)C3)nc2-c2ccc(F)c(C#N)c2)c1` [Example 15, 5-{5-(3-Cyano-5-fluorophenyl)-2-[(4-oxoimidazolidin-1-yl)carbonyl]-1,3-thiazole-4-yl}-2-fluorobenzenecarbonitrile], for which the concentration for a half-maximal effect (EC50) in experiment [1] came to 2 nM; in experiment [2] it was 9 nM; in experiment [3] it was 87 nM.

Regarding `N#Cc1cccc(-c2sc(C(=O)N3CNC(=O)C3)nc2-c2ccc(F)c(C#N)c2)c1` [Example 16, 5-{5-(3-Cyanophenyl)-2-[(4-oxoimidazolidin-1-yl)carbonyl]-1,3-thiazole-4-yl}-2-fluorobenzenecarbonitrile], the EC50 in experiment [1] is 2 nM; in experiment [2], 15 nM; in experiment [3], 123 nM.

`N#Cc1cccc(-c2nc(C(=O)N3CNC(=O)C3)sc2-c2cccc(Cl)c2)c1` [Example 17]: the half-maximal effective concentration (EC50) in experiment [1] worked out at 2 nM; in experiment [2], 0.5 nM; in experiment [3], 64 nM.

In the case of `N#Cc1cccc(-c2nc(C(=O)N3CNC(=O)C3)sc2-c2cc(F)cc(Cl)c2)c1` [Example 18, 3-{5-(3-Chloro-5-fluorophenyl)-2-[(4-oxoimidazolidin-1-yl)carbonyl]-1,3-thiazole-4-yl}benzenecarbonitrile], the EC50 stood at 1 nM in experiment [1], 0.4 nM in experiment [2] and 38 nM in experiment [3].

As to `N#Cc1cccc(-c2nc(C(=O)N3CNC(=O)C3)sc2-c2cccc(C#N)c2)c1` [Example 19, 3,3′-{2-[(4-Oxoimidazolidin-1-yl)carbonyl]-1,3-thiazole-4,5-diyl}benzenecarbonitrile], the results for the half-maximal effective concentration (EC50) in experiment [1], in experiment [2] and in experiment [3] were 1 nM, 2 nM and 94 nM, respectively.

With `N#Cc1cc(F)cc(-c2sc(C(=O)N3CNC(=O)C3)nc2-c2cccc(Cl)c2)c1` [Example 21, 3-{4-(3-Chlorophenyl)-2-[(4-oxoimidazolidin-1-yl)carbonyl]-1,3-thiazole-5-yl}-5-fluorobenzenecarbonitrile], the concentration for a half-maximal effect (EC50) in experiment [1] turned out to be 2 nM; in experiment [2] it was 2 nM; in experiment [3], 79 nM.
